Assay results from patent US8916565B2, “Pyrrolopyrazine-spirocyclic piperidine amides as modulators of ion channels” (priority 2011, dated 2014).

Target: human NaV subtype, like NaV 1.7 (Homo sapiens, UniProt Q15858)
Test: E-VIPR optical membrane potential assay with electrical stimulation
Format: cell-based
Details: active against one or more sodium channels; Table 3 does not name the assay or NaV subtype; read-out: Binned Activity Data (IC50)

Sequence of human NaV subtype, like NaV 1.7 (Q15858 whole entry): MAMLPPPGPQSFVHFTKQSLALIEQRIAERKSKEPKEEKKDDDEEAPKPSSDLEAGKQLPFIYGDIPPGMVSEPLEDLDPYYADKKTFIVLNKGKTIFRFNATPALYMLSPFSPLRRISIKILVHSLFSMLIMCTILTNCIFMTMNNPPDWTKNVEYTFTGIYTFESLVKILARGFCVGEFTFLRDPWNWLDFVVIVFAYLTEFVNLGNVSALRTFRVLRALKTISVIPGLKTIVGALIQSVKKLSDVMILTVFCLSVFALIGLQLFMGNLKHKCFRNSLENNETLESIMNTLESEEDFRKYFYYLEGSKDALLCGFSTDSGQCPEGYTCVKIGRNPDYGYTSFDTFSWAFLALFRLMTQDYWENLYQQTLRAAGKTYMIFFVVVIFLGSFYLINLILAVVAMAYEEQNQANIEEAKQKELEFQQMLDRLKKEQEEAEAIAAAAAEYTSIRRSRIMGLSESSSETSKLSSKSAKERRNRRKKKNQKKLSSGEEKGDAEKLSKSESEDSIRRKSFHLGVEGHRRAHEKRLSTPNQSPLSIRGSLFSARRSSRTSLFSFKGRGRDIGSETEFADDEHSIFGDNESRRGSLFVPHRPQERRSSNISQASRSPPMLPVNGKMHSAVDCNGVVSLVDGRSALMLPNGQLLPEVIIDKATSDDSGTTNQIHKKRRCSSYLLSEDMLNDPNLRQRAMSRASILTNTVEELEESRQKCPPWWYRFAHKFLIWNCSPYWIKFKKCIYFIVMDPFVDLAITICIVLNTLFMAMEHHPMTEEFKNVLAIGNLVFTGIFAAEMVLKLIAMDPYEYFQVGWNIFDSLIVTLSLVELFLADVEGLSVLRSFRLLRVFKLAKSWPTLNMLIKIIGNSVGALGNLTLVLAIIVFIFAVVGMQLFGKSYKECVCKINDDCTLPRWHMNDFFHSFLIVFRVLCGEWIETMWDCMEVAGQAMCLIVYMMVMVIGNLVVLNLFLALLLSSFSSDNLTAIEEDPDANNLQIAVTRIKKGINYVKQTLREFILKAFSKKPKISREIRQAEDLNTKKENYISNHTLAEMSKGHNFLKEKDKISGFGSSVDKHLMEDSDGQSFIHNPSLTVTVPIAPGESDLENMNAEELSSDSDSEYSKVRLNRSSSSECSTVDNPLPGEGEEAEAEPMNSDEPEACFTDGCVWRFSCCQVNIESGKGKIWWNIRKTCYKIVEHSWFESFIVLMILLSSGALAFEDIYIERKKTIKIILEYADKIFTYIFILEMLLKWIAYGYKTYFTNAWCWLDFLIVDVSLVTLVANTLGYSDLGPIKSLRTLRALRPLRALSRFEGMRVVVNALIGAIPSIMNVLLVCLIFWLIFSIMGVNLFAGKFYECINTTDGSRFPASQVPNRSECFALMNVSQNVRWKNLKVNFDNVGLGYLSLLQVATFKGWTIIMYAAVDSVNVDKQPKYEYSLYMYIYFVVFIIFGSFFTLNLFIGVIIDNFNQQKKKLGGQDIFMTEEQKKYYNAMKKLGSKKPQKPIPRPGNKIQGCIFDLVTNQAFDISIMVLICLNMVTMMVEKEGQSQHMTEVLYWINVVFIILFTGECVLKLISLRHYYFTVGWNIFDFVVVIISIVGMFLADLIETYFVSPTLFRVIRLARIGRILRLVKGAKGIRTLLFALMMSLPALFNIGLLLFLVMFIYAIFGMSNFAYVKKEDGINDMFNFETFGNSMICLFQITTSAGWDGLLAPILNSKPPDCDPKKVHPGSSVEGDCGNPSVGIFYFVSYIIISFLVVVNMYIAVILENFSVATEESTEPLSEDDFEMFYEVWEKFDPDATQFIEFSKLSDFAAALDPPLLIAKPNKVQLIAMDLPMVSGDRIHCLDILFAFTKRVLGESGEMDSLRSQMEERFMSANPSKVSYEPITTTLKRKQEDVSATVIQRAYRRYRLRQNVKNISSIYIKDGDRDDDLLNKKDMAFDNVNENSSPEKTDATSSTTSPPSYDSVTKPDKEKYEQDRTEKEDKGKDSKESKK

IC50	Structure (SMILES)
> 5000 nM	Cc1nc(C(=O)N2CCC3(CC2)c2cc(C(=O)C(F)(F)F)cn2C(C)(C)CN3C)ccc1OC(C)C [Compound 178]
2000 to 5000 nM	COc1cc(C(=O)N2CCC3(CC2)N[C@H](C)Cn2c(C(F)(F)F)ccc23)ccc1OC(C)C [Compound 179]
≤ 2000 nM	COc1ccc(C(=O)N2CCC3(CC2)c2ccc(C(=O)c4ccccc4)n2CCN3C)cc1C(F)(F)F [Compound 180]
≤ 2000 nM	CCCCOc1ccc(C(=O)N2CCC3(CC2)NCCn2c(C(F)(F)F)ccc23)cc1OC [Compound 181]
≤ 2000 nM	Cc1cc(C(=O)N2CCC3(CC2)c2ccc(C(=O)C(C)C)n2CCN3C)ccc1OC(C)C [Compound 182]
≤ 2000 nM	CC(C)C(=O)c1ccc2n1CCN(C)C21CCN(C(=O)c2ccc(C(C)(C)O)c(F)c2)CC1 [Compound 183]
2000 to 5000 nM	CN1CCn2c(C(F)(F)F)cc(F)c2C12CCN(C(=O)c1ccc(C3CC3)cc1)CC2 [Compound 184]
≤ 2000 nM	CN1CCn2c(C(=O)C(F)(F)F)ccc2C12CCN(C(=O)c1ccc(OC(F)(F)F)cc1)CC2 [Compound 185]
≤ 2000 nM	COCCN1CCn2c(C(F)(F)F)ccc2C12CCN(C(=O)c1ccc(OC(C)C)c(OC)c1)CC2 [Compound 186]
≤ 2000 nM	COCCOc1ccc(C(=O)N2CCC3(CC2)c2c(F)cc(C(F)(F)F)n2CCN3C)cc1OC [Compound 187]
≤ 2000 nM	COc1cc(C(=O)N2CCC3(CC2)c2c(F)cc(C(F)(F)F)n2CCN3C)ccc1OCC(C)C [Compound 188]
≤ 2000 nM	CCCCc1ccc(C(=O)N2CCC3(CC2)c2ccc(C(C)=O)n2CCN3C)cc1 [Compound 189]
≤ 2000 nM	CCCOc1ccc(C(=O)N2CCC3(CC2)c2ccc(C(F)(F)F)n2CCN3C)cc1OC [Compound 190]
≤ 2000 nM	Cc1cc(C(=O)N2CCC3(CC2)c2ccc(C(=O)C(F)(F)F)n2CCN3C)ccc1-c1cncnc1 [Compound 191]
> 5000 nM	CCNS(=O)(=O)c1ccc(C(=O)N2CCC3(CC2)c2ccc(C(C)=O)n2CCN3C)cc1 [Compound 192]
≤ 2000 nM	CN1CCn2c(C(F)(F)F)cc(F)c2C12CCN(C(=O)c1ccc(C(C)(C)O)cc1)CC2 [Compound 193]
≤ 2000 nM	CNS(=O)(=O)c1ccc(C(=O)N2CCC3(CC2)c2ccc(C(=O)C(F)(F)F)n2CCN3C)cc1C [Compound 194]
> 5000 nM	CN1CCn2c(Cl)ccc2C12CCN(C(=O)c1ccc(N3CCCCC3)cc1)CC2 [Compound 195]
> 5000 nM	CN1CCn2c(C(F)(F)F)ccc2C12CCN(C(=O)c1ccc(OC(C)(C)C)cn1)CC2 [Compound 196]
≤ 2000 nM	CC1(C)Cn2c(C(=O)C(F)(F)F)ccc2C2(CCN(C(=O)c3ccc(S(=O)(=O)C4CC4)cc3)CC2)N1 [Compound 197]
≤ 2000 nM	Cc1nc(C(=O)N2CCC3(CC2)NCC(C)n2c(C(=O)C(F)(F)F)ccc23)ccc1OC(C)C (centres unmarked) [Compound 198]
≤ 2000 nM	Cc1cc(C(=O)N2CCC3(CC2)c2ccc(C(=O)C(C)(C)C)n2CCN3C)ccc1OC(C)C [Compound 199]
≤ 2000 nM	Cc1nc(C(=O)N2CCC3(CC2)c2ccc(C(F)(F)F)n2CCN3C)ccc1OC(C)C [Compound 200]
≤ 2000 nM	Cc1cc(C(=O)N2CCC3(CC2)c2ccc(C(=O)C(F)(F)F)n2CCN3C)ccc1O [Compound 201]
2000 to 5000 nM	CC(C)Oc1ccc(C(=O)N2CC[C@]3(c4ccc(C(F)(F)F)n4CCN3C)[C@H](F)C2)cc1CO [Compound 202]

IC50	Structure (SMILES)
≤ 2000 nM	CCCCOc1ccc(C(=O)N2CCC3(CC2)c2ccc(C(F)(F)F)n2CCN3C)cc1OC [Compound 203]
> 5000 nM	COc1ccc(C(=O)N2CCC3(CC2)NC(C)(C)Cn2c(C(C)=O)ccc23)cc1Cl [Compound 204]
> 5000 nM	COc1ccc(C(=O)N2CCC3(CC2)c2ccc(C(C)=O)n2CCN3C)cc1-c1ccccc1 [Compound 205]
≤ 2000 nM	Cc1nc(C(=O)N2CCC3(CC2)c2c(F)cc(C(F)(F)F)n2CCN3C)ccc1OC(C)C [Compound 206]
≤ 2000 nM	Cc1cc(C(=O)N2CCC3(CC2)c2ccc(C(=O)C(F)(F)F)n2C[C@H](C)N3C)ccc1O [Compound 207]
≤ 2000 nM	CC1(C)Cn2c(C(=O)C(F)(F)F)ccc2C2(CCN(C(=O)c3ccc(S(=O)(=O)C(C)(C)C)cc3)CC2)N1 [Compound 208]
≤ 2000 nM	COc1cc(C(=O)N2CCC3(CC2)c2ccc(Cl)n2CCN3C)ccc1C(C)(C)C [Compound 209]
2000 to 5000 nM	CCOC(=O)N1CCn2c(C#N)ccc2C12CCN(C(=O)c1ccc(OC(C)C)c(C)c1)CC2 [Compound 210]
≤ 2000 nM	Cc1cc(C(=O)N2CCC3(CC2)c2ccc(C(F)(F)C(F)(F)F)n2CCN3C)ccc1OC(C)C [Compound 211]
≤ 2000 nM	CCCCOc1cc(C(=O)N2CCC3(CC2)c2ccc(C(F)(F)F)n2CCN3C)ccc1OC [Compound 212]
≤ 2000 nM	COc1cc(C(=O)N2CCC3(CC2)c2ccc(C(F)(F)F)n2CCN3C)ccc1C(C)(C)O [Compound 213]
≤ 2000 nM	CN1CCn2c(C(=O)C(F)(F)F)ccc2C12CCN(C(=O)c1ccc(COc3ccccc3)cc1)CC2 [Compound 214]
≤ 2000 nM	Cc1cc(C(=O)N2CCC3(CC2)c2c(F)cc(C(F)(F)F)n2CCN3C)ccc1S(=O)(=O)C(C)C [Compound 215]
≤ 2000 nM	Cc1cc(C(=O)N2CCC3(CC2)c2ccc(C(=O)C(F)(F)F)n2CCN3C)ccc1-c1ccc(C#N)nc1 [Compound 216]
≤ 2000 nM	Cc1cc(C(=O)N2CCC3(CC2)c2c(F)cc(C(F)(F)F)n2CCN3C)ccc1OCC(C)(C)O [Compound 217]
> 5000 nM	CC1(C)Cn2c(C(=O)C(F)(F)F)ccc2C2(CCN(C(=O)c3ccc(-c4ccccc4)c(O)c3)CC2)N1 [Compound 218]
≤ 2000 nM	CC(=O)c1ccc2n1CCN(C)C21CCN(C(=O)c2ccc(OCCC(C)C)cc2)CC1 [Compound 219]
2000 to 5000 nM	CC(C)Oc1ccc(C(=O)N2CCC3(CC2)c2ccc(Cl)n2CCN3C)cc1C#N [Compound 220]
> 5000 nM	CC(C)c1ccc(C(=O)N2CCC3(CC2)c2ccc(Cl)n2CCN3C)cc1 [Compound 221]
≤ 2000 nM	Cc1cc(C(=O)N2CCC3(CC2)NC(C)Cn2c(C(F)(F)F)ccc23)ccc1OC(C)C (centres unmarked) [Compound 222]
2000 to 5000 nM	COc1ccc(C(=O)N2CCC3(CC2)c2ccc(C(=O)C(F)(F)F)n2C(C)(C)CN3C)cc1C [Compound 223]
> 5000 nM	CCCc1ccc(C(=O)N2CCC3(CC2)c2ccc(Cl)n2CCN3C)cc1 [Compound 224]
> 5000 nM	CC(=O)c1ccc2n1C(C)(C)CN(C)C21CCN(C(=O)c2ccc(C(C)(C)O)c(F)c2)CC1 [Compound 225]
≤ 2000 nM	CN1CCn2c(ccc2C(F)(F)C(F)(F)F)C12CCN(C(=O)c1ccc(CC(C)(C)O)c(F)c1)CC2 [Compound 226]
> 5000 nM	COc1cc(C(=O)N2CCC3(CC2)c2ccc(C(F)(F)F)n2CCN3C(=O)N(C)C)ccc1OC(C)C [Compound 227]

IC50	Structure (SMILES)
≤ 2000 nM	CN1CCn2c(C(F)(F)F)cc(Cl)c2C12CCN(C(=O)c1ccc(C3(O)CCC3)cc1)CC2 [Compound 228]
2000 to 5000 nM	CCCOc1cc(C(=O)N2CCC3(CC2)c2ccc(Cl)n2CCN3C)ccc1OC [Compound 229]
≤ 2000 nM	COc1cc(C(=O)N2CCC3(CC2)c2ccc(C(C)=O)n2CCN3C)ccc1OCC(C)C [Compound 230]
> 5000 nM	Cc1cc(C(=O)N2CCC3(CC2)c2cc(C(=O)C(F)(F)F)cn2C(C)(C)CN3C)ccc1OC(C)C [Compound 231]
≤ 2000 nM	CC(C)Oc1ccc(C(=O)N2CCC3(CC2)NC(C)(C)Cn2c(C(=O)C(F)(F)F)ccc23)cc1F [Compound 232]
≤ 2000 nM	CC(C)Oc1ccc(C(=O)N2CCC3(CC2)c2ccc(C(=O)C(F)(F)F)n2CCN3C)cc1 [Compound 233]
> 5000 nM	COc1cc(C(=O)N2CCC3(CC2)c2ccc(Cl)n2CCN3C)ccc1OC(C)C [Compound 234]
≤ 2000 nM	Cc1cc(C(=O)N2CCC3(CC2)NCC(C)n2c(C(=O)C(F)(F)F)ccc23)ccc1C(C)(C)O (centres unmarked) [Compound 235]
≤ 2000 nM	Cc1cc(C(=O)N2CCC3(CC2)c2ccc(C(=O)C(F)(F)F)n2CCN3C)ccc1-c1cccc(Cl)c1 [Compound 236]
≤ 2000 nM	CN1CCn2c(C(=O)C(F)(F)F)ccc2C12CCN(C(=O)c1ccc(COCCC(F)(F)F)cc1)CC2 [Compound 237]
≤ 2000 nM	Cc1cc(C(=O)N2CCC3(CC2)c2ccc(C(=O)C(F)(F)F)n2CCN3C)cc(C)c1O [Compound 238]
> 5000 nM	COc1ccc(C(=O)N2CCC3(CC2)c2cc(C(=O)C(F)(F)F)cn2C(C)(C)CN3C)cc1C [Compound 239]
≤ 2000 nM	COc1ccc(C(=O)N2CCC3(CC2)c2ccc(C(=O)C(F)(F)F)n2C(C)CN3C)cc1C(F)(F)F (centres unmarked) [Compound 240]
> 5000 nM	CCCCOc1cc(C(=O)N2CCC3(CC2)NCCn2c(C(F)(F)F)ccc23)ccc1OC [Compound 241]
≤ 2000 nM	CN1CCn2c(C(F)(F)F)cc(F)c2C12CCN(C(=O)c1ccc(C3(O)CCC3)cc1)CC2 [Compound 242]
≤ 2000 nM	CC(C)Oc1ccc(C(=O)N2CCC3(CC2)c2ccc(C(=O)C(C)(C)C)n2CCN3C)cc1Cl [Compound 243]
≤ 2000 nM	CN1CCn2c(C(F)(F)F)ccc2[C@]12CCN(C(=O)c1ccc(S(=O)(=O)NC3CC3)cc1)C[C@H]2F [Compound 244]
≤ 2000 nM	COCCOc1ccc(C(=O)N2CCC3(CC2)c2ccc(C(F)(F)C(F)(F)F)n2CCN3C)cc1OC [Compound 245]
> 5000 nM	CC(=O)c1ccc2n1CCN(C)C21CCN(C(=O)c2ccc(S(=O)(=O)C(C)C)c(C)c2)CC1 [Compound 246]
≤ 2000 nM	COc1cc(C(=O)N2CCC3(CC2)N[C@H]2CCCC[C@H]2n2cccc23)ccc1OCCC(C)C [Compound 247]
≤ 2000 nM	Cc1cc(C(F)F)n2ncc(C(=O)N3CCC4(CC3)c3ccc(C(=O)C(C)(C)C)n3CCN4C)c2n1 [Compound 248]
≤ 2000 nM	Cc1cc(C(=O)N2CCC3(CC2)c2c(F)cc(C(F)(F)F)n2CCN3C)ccc1OCCCO [Compound 249]
≤ 2000 nM	CC(C)Oc1ccc(C(=O)N2CCC3(CC2)c2ccc(Cl)n2CCN3C)cc1Cl [Compound 250]
≤ 2000 nM	CN1CCn2c(C(=O)C(C)(C)C)ccc2C12CCN(C(=O)c1ccc(C(C)(C)O)c(F)c1)CC2 [Compound 251]
